Laboratory results reported in patent US20260053931A1, “MDM2 TARGETING PROTACS” (THE WISTAR INSTITUTE OF ANATOMY AND BIOLOGY, priority 2023, published 2026).

Tests used:
VHL = VHL (Homo sapiens, UniProt P40337); test: HTRF binding assay for VHL (Table 2)
Excerpt: (§1) Biochemical assays in 384-well format have established to assess the binding of newly synthesized PROTACs to the appropriate E3 ligase using HTRF technology. In these assays an anti-HIS antibody conjugated to terbium was used as the donor fluor, and either a Cy5 labeled small molecule probe, or a biotinylated peptide that is bound to a streptavidin acceptor.

MCF7 = test: Cytotoxicity to wild type p53 cells; format: cell-based; conditions: Homo sapiens
mut p53 MDA-MD-231 cells = test: Live cell count with CellTag700 Stain in ICW format
Procedure: Cells are seeded in 96 half area well plates (black clear bottom) and cultured overnight. Then they are treated with compounds, fixed with 4% paraformaldehyde for 20 minutes, and permeabilized in 0.1% Triton. They are then treated with the primary antibody and secondary antibody conjugated to IRDye800CW or treated with CellTag 700 Stain. The plates are then scanned on the OdysseyCLX and the data processed to provide a dose response curve.
Since genetic deletion of Mdm2 induces p73 and induces apoptosis in p53 mutant and deficient cancer cells, YX-02-030 and YX-02-228 were evaluated for their effect on cell viability. First, the CellTag700 Stain was utilized to count the number of live cells in the ICW format.

Mdm2 [1] = biological target: T1, Mdm2 (Homo sapiens, UniProt Q00987); test: Mdm2 HTRF binding assay (Table 2); conditions: read-out: Mdm2 HTRF IC50
Excerpt: An HTRF binding assay was developed using a biotinylated peptide containing the Mdm2-binding domain of p53 and a recombinant GST-tagged N-terminus of Mdm2 containing the p53-binding domain. HTRF is a proximity-based fluorescence energy transfer (FRET) assay that takes advantage of the unique time-resolved fluorescence of the lanthanide chelates, such as terbium and europium. HTRF IC50 values are provided for all key compounds (FIG. 13C, FIG. 19B, and Table 2).
Target sequence in this assay (Q00987 26-109 limits assumed): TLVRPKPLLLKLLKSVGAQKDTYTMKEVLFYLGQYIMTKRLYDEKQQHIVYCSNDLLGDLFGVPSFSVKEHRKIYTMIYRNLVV

Mdm2 [2] = biological target: T1, Mdm2; test: In-Cell Western, mut p53 MDA-MB-231 cell line; format: cell-based; parameters: endogenous in cells; host or cells: MCF7 (A8); MDA-MB-231 (A9); conditions: mutant p53 MDA-MB-231
Procedure: (§2) Cells were seeded at decreasing cell number from 15K cells to 2K cells. The Mdm2 primary antibody was tested at 1:200 and 1:300 dilution. The secondary antibody conjugated to IRDye800CW was used with 1:800 dilution, and CellTag 700 Stain was used at 1:1000 dilution as manufacture recommended. The linearity of cell number versus signal was generated with Prism. The signal over background ratio was also calculated.
(§3) The potential PROTACs were evaluated in the wt p53 MCF7 cell line and in the mut p53 MDA-MB-231 cell line. Importantly these were compared to MD-224, which was recently reported to potently degrade Mdm2 in RS4; 11 leukemia cells (Li et al., 2019). Assay linearity was performed confirming a strong 4-fold signal to noise in the assay. A series of bi-functional molecules were then treated and evaluated for protein level in the assay over time from 2 h-48 h. […] In this wt p53 cancer cell line the stabilization of p53 (FIG. 15B), and subsequent p53-mediated transcriptional upregulation of Mdm2 make it difficult to observe degradation. […] These compounds were evaluated in the mutant p53 cancer cells. […] In this cell line, it takes approximately 16-24 h to detect the degradation. […] The difference in the molecules is that MD-224 utilizes a CRBN recruiting ligand.
Target sequence in this assay (Q00987 whole entry, the tested form may be a part): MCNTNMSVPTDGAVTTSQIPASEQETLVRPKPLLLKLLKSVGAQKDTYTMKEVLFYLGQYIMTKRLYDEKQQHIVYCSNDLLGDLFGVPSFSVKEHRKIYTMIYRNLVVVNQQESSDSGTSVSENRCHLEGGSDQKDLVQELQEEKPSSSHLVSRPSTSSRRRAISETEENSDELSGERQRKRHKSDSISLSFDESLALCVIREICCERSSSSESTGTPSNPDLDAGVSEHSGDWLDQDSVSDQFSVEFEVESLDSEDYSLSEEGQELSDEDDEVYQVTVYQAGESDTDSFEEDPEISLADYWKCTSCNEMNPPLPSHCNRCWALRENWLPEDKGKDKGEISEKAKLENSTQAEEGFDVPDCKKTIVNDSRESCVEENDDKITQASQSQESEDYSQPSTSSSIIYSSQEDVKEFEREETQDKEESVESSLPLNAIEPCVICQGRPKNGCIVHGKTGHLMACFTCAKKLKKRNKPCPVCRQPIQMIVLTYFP

VHL complex = biological target: T2, VHL complex (Homo sapiens, UniProt P40337); test: Inhibition of HIF-1α peptide binding to the VHL complex using HTRF (Table 3); conditions: mean ± S.E.M. of three replications; read-out: VHL-HIFa peptide IC50
T2 construct: purchased R&D systems E3-655-025
T2 sequence (P40337 whole entry): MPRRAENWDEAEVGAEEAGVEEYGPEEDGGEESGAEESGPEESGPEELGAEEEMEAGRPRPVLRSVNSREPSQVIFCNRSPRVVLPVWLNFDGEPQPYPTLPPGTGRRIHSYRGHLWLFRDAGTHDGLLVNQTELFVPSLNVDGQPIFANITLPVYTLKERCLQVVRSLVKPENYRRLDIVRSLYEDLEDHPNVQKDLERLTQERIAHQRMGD
T2 sequence (Q15370 whole entry partner): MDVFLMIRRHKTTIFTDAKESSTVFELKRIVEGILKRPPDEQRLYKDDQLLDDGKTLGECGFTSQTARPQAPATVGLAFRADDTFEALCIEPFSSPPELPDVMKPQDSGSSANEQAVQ
T2 sequence (Q15369 whole entry partner): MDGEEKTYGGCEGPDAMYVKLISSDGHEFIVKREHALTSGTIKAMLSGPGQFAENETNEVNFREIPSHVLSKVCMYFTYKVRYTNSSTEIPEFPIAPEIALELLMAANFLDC
T2 sequence (Q13617 whole entry partner): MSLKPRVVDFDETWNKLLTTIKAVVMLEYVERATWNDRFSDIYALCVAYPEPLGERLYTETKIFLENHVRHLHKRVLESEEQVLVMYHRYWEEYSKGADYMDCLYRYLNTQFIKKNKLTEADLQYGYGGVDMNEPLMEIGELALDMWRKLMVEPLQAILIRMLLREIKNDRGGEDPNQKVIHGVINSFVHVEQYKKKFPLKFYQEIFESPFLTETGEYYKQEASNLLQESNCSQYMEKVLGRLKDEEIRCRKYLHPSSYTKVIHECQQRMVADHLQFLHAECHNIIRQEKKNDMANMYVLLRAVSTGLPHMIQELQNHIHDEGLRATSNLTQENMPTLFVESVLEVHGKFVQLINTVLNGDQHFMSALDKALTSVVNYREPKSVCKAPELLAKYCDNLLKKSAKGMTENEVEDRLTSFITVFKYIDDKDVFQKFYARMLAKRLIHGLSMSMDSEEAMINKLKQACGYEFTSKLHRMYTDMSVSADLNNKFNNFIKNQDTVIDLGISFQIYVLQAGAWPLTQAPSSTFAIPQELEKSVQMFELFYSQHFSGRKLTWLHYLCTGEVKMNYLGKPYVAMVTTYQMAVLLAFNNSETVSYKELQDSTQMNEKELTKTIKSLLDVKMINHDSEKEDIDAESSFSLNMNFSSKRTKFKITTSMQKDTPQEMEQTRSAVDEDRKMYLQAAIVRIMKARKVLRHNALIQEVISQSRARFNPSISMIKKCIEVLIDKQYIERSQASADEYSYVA
T2 sequence (P62877 whole entry partner): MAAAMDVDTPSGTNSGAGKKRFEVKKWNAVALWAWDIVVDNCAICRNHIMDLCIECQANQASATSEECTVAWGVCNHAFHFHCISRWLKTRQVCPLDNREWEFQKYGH
Procedure: Assays contained 2 nM of HIS-VHL complex (R&D systems, E3-655-025), 2 nM of biotin-hydroxyproline-HIF1α peptide (Biotin-[…] (SEQ ID NO: 2), X=hydroxyproline), 0.3 nM anti-HIS-Tb HTRF donor antibody and 4 nM streptavidin-d2 HTRF acceptor (PerkinElmer) in a final volume of 10 μL of 25 mM HEPES, pH 7.4, 150 mM NaCl, 5 mM DTT, 0.005% Tween20 in white low volume 384-well plates. Both HIS-VHL complex and biotin-HIF1α peptide were pre-incubated with their respective HTRF antibodies for 15 min. Test compounds were solubilized at 10 mM in DMSO and concentration series was added to the assay plate using the Echo 650 acoustic liquid handling system by direct dilution. The final amount of DMSO added to the assay was 100 nL […]. Compounds were pre-incubated with HIS-VHL complex before the addition of the biotin-HIF1α peptide. After a 2 hr incubation, the HTRF signal was measured using the ClarioStar plate reader (BMG Labtech). […] IC50 values were determined from nonlinear regression fits of a data to a four parameter dose-response equation using XLFit (IDBS). Data are the means±S.E.M. of three replications. The data is described in Table 3 above.

[3] = test system: Mdm2-/-p53-/- sarcoma cells; test: Murine Mdm2-/-p53-/- sarcoma cells, MTT; format: cell-based, mouse; conditions: MTT assay, 48 hrs
Excerpt: A-B. Murine Mdm2+/+p53-null sarcoma cells treated with Mdm2 PROTAC (YX-02-030), control YX-02-023 (−), or vehicle (DMSO). A. Western blots after 24 hrs (cleaved caspase 3, CC3. Mdm2^−/−p53^−/− fibroblasts were a control for the Western blot). B. Dose response curve (MTT assay, 48 hrs). C. Dose response curves of murine Mdm2^−/−p53^−/− sarcoma cells treated with Mdm2 PROTAC (YX-02-030), negative controls (−), a Bcl2/Bclx/Bclw inhibitor (+), or vehicle control (MTT assay, quadruplicate, 48 hrs- MTT assay, B-C graphed relative to DMSO).

Mdm2 [4] = biological target: T1, Mdm2; test: In-Cell Western, wt p53 MCF7 cell line; format: cell-based; parameters: endogenous in cells; host or cells: MCF7 (A8); MDA-MB-231 (A9); conditions: wt p53 MCF7, 2 h-48 h
Procedure: as §2, §3
Target sequence in this assay (Q00987 whole entry, the tested form may be a part): as the sequence (Q00987 whole entry, the tested form may be a part) above

[5] = biological target: T3, human cereblon (CRBN) complex (Homo sapiens, UniProt Q96SW2); test: HTRF binding assay for Cereblon (Table 2)
T3 construct: purchased R & D systems
T3 sequence (Q96SW2 whole entry): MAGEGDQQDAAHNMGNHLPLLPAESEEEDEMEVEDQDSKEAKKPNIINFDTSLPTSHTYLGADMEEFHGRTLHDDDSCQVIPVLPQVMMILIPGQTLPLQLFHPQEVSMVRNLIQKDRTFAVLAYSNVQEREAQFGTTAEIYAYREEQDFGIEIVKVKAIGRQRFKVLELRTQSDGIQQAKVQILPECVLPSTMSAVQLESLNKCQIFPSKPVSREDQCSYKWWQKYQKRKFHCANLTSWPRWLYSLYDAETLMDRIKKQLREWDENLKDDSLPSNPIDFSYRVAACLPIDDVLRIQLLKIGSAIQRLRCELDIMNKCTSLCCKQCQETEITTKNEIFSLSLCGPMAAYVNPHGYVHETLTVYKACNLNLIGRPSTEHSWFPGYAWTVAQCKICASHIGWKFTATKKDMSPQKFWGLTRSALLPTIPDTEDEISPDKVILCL
T3 sequence (Q16531 whole entry partner): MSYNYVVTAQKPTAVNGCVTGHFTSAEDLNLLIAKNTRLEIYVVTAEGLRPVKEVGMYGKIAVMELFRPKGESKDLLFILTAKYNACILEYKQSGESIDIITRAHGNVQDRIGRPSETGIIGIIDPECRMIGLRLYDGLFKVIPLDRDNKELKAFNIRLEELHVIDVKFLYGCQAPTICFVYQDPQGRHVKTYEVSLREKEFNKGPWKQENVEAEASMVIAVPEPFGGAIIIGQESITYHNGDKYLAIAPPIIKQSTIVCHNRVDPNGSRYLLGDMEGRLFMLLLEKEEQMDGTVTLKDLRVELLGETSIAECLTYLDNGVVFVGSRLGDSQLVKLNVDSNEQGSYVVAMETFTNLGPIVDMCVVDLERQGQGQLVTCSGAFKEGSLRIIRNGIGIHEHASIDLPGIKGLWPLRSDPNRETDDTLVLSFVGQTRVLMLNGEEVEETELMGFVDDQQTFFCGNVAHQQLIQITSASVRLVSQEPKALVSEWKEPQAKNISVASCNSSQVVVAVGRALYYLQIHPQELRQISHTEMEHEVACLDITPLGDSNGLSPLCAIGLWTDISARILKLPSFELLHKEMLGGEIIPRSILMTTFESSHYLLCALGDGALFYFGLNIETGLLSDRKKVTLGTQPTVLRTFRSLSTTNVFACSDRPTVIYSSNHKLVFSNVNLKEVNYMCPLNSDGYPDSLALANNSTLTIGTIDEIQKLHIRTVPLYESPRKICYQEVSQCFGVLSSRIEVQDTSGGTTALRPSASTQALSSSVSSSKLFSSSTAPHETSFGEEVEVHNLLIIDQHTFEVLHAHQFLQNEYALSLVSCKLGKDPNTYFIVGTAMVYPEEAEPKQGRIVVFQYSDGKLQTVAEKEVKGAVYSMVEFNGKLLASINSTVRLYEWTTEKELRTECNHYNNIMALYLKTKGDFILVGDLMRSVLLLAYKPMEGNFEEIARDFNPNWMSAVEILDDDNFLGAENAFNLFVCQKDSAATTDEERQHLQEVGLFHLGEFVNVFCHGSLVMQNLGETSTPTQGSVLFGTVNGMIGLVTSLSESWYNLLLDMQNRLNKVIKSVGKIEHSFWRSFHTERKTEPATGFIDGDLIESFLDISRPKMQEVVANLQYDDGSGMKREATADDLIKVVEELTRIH
T3 sequence (Q13619 whole entry partner): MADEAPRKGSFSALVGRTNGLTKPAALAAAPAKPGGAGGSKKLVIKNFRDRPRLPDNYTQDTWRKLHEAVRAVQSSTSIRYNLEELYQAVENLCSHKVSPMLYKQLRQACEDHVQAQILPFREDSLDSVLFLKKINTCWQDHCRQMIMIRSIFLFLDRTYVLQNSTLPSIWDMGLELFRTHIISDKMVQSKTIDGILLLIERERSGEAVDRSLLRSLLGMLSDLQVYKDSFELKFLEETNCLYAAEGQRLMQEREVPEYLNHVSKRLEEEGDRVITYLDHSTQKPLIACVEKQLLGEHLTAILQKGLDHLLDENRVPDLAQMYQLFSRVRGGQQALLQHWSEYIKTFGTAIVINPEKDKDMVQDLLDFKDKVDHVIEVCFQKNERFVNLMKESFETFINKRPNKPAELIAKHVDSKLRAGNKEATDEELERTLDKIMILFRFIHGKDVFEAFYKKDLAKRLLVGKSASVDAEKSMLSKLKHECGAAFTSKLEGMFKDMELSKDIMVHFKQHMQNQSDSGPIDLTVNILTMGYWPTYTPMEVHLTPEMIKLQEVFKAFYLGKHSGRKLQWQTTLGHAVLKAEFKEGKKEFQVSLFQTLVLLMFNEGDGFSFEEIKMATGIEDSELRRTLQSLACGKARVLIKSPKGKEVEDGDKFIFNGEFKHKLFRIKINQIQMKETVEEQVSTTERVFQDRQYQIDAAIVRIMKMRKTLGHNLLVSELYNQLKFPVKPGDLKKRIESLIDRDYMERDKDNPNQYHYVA
T3 sequence (P62877 whole entry partner): as the sequence (P62877 whole entry partner) above
Excerpt: as §1
Cereblon: Recombinant human cereblon (CRBN) complex, including CUL4A, RBX1, DDB1 and CRBN is purchased from R & D systems. This four-member protein complex has an N-terminal HIS tag on the CUL4A subunit. The CRBN complex is diluted in assay buffer containing anti-HIS-Tb Cryptate Gold (CisBio) and is added to low volume 384-well plates. Test compounds in 100% DMSO are added to the plates followed by the Cy5-labeled lenolidamide probe. After 1 hour the HTRF signal is measured on the Envision. Data are normalized to % inhibition. The typical signal-to-noise is 5:1. Bi-functional molecules containing the Cereblon ligands are tested in TABLE 2 (see YX-02-041).

VHL, sequence (P40337 whole entry): as the sequence (P40337 whole entry) above
VHL, sequence (Q15370 whole entry partner): as the sequence (Q15370 whole entry partner) above
VHL, sequence (Q15369 whole entry partner): as the sequence (Q15369 whole entry partner) above

In the case of `CCOc1cc(C(C)(C)C)ccc1C1=N[C@@](C)(c2ccc(Cl)cc2)[C@@](C)(c2ccc(Cl)cc2)N1C(=O)N1CCN(CC(=O)NCCCCNC(=O)COc2cccc3c2C(=O)N(C2CCC(=O)NC2=O)C3=O)CC1` (mixture of isomers) [YX-02-041, 2-(4-((4S,5R)-2-(4-(tert-butyl)-2-ethoxyphenyl)-4,5-bis(4-chlorophenyl)-4,5-dimethyl-4,5-dihydro-1H-imidazole-1-carbonyl)piperazin-1-yl)-N-(4-(2-((2-(2,6-dioxopiperidin-3-yl)-1,3-dioxoisoindolin-4-yl)oxy)acetamido)butyl)acetamide], the IC50 (VHL) is reported as > 10 µM, the IC50 (MCF7) is reported as ~20 µM and the “cytotoxicity to mutant p53 cells” value (mut p53 MDA-MD-231 cells; other studies, compared with MCF7) is reported as “much less cytotoxic”. The IC50 (Mdm2 [1]) was 0.003 µM and the Mdm2 degradation (Mdm2 [2]) was “did not provide robust degradation”.
`COc1ccc(C2=N[C@@H](c3ccc(Cl)cc3)[C@@H](c3ccc(Cl)cc3)N2C(=O)N2CCNC(=O)C2)c(OC(C)C)c1` [Nutlin-3, reference compound] was tested, and the IC50 (VHL complex) was > 10 µM.
With `CC1(C)CCC(c2ccc(Cl)cc2)=C(CN2CCN(c3ccc(C(=O)NS(=O)(=O)c4ccc(N[C@H](CCN5CCOCC5)CSc5ccccc5)c(S(=O)(=O)C(F)(F)F)c4)cc3)CC2)C1` [ABT-263/Navitoclax, Navitoclax, reference compound] the “response of Mdm2-/-p53-/- sarcoma cells” value [3] was “responsive”.
For `O=C1CCC(N2Cc3c(C#CCCCNC(=O)c4ccc(NC(=O)[C@@H]5NC6(CCCCC6)[C@@]6(C(=O)Nc7cc(Cl)ccc76)[C@H]5c5cccc(Cl)c5F)cc4)cccc3C2=O)C(=O)N1` (stereo partly drawn) [MD-224, reference compound], the “cytotoxic effect, number of live cells” value (mut p53 MDA-MD-231 cells; after 24 h and 48 h treatment) was “no cytotoxic effect”, the Mdm2 degradation (Mdm2 [2]) was “did not reduce Mdm2 protein level” and the Mdm2 protein level (Mdm2 [4]) was “modest degradation”.
With `CCOc1cc(C(C)(C)C)ccc1C1=NC(C)(c2ccc(Cl)cc2)C(C)(c2ccc(Cl)cc2)N1C(=O)N1CCN(CC(=O)N[C@H](C(=O)N2C[C@H](O)C[C@H]2C(=O)NCc2ccc(-c3scnc3C)cc2)C(C)(C)C)CC1` (stereo in doubt) [YX-02-230, 1-(2-(2-(4-((4S,5R)-2-(4-(tert-butyl)-2-ethoxyphenyl)-4,5-bis(4-chlorophenyl)-4,5-dimethyl-4,5-dihydro-1H-imidazole-1-carbonyl)piperazin-1-yl)acetamido)-3,3-dimethylbutanoyl)-4-hydroxy-N-(4-(4-methylthiazol-5-yl)benzyl)pyrrolidine-2-carboxamide] the IC50 (Mdm2 [1]) was 0.018 µM and the IC50 [5] was > 10 µM.
